Assay results taken from patent publication US20200069775A1, “BRAIN OSTEOCALCIN RECEPTOR AND COGNITIVE DISORDERS” (The Trustees of Columbia University in the City of New York, priority 2017, published 2020).

Columns and labels:
[1] = Blood brain barrier crossing: subcutaneous pump infusion, content in blood, bone and brain parts by ELISA; assay type: in vivo, mouse; conditions: Osteocalcin−/− mice, subcutaneous pumps 50 ng/hour, seven days
Method: Osteocalcin−/−, Gprc6a−/−, Osteocalcin-mCherry, and Osteocalcin foxed mice have been previously described (Ducy et al., 1996, Nature 382:448-452; Oury et al., 2011, Cell 144:796-809). Mouse genotypes were determined by PCR. For all experiments, controls were littermate female WT, Cre-expressing, or flox/flox. All mice were maintained on a pure 129-Sv genetic background except for the inducible deletion Osteocalcin model (mix background: 25% C57/BL6 and 75% 129sv). For inducible gene deletion mice, tamoxifen was prepared in corn oil and injected intraperitoneally (IP) (1 mg/20g of body weight) over one week. For osteocalcin delivery to pregnant mice, IP injections (240 ng/day) were performed as soon as a plug was present daily until delivery (E0.5-E18.5). For osteocalcin or leptin infusion in adult Osteocalcin−/− or ob/ob mice, pumps (Alzet micro-osmotic pump, Model 1002) delivering osteocalcin (300 ng/hr), leptin (50 ng/hr), or vehicle were surgically installed subcutaneously in the backs of 3-month old mice. For the postnatal rescue of cognitive functions in Osteocalcin−/− mice, osteocalcin (10 ng/hour) or vehicle were delivered intrasubventricularly (icv) as previously described (Ducy et al., 2000, Cell 100:197-207). Leptin and osteocalcin content in sera and tissues were determined by ELISA.
To understand how this behavioral phenotype develops, whether osteocalcin crosses the blood brain barrier (BBB) was tested by installing pumps that subcutaneously delivered vehicle or uncarboxylated osteocalcin (50 ng/hour) in three-month-old Osteocalcin−/− mice. The positive control for this experiment was subcutaneous infusion of leptin (50 ng/hour) in 3 month-old ob/ob mice, since leptin is known to cross the BBB (Banks et al., 1996, Peptides 17:305-311). Seven days later, osteocalcin and leptin content were measured in blood, bone, and in various parts of the brain in Osteocalcin−/− and ob/ob mice, respectively.

[2] = tested on: brainstem neurons (dorsal raphe 5-HT neurons, locus coeruleus, GABAergic interneurons); experiment: Whole cell current clamp recording in brainstem slices; assay type: cell-based, mouse; conditions: whole cell current clamp
Method: Brain slice preparations and electrophysiological recordings were performed according to methods known in the art. Briefly, WT mice were anesthetized with ether and then decapitated. The brains were rapidly removed and immersed in an oxygenated bath solution at 40° C. containing (in mM): sucrose 220, KCl 2.5, CaCl2 1, MgC12 6, NaH2PO4 1.25, NaHCO3 26, and glucose 10 pH 7.3 with NaOH. Coronal slices (350 μm thick) containing dorsal raphe (DR) were cut on a vibratome and maintained in a holding chamber with artificial cerebrospinal fluid (ACSF) (bubbled with 5% CO2 and 95% O2) containing (in mM): NaCl 124, KCl 3, CaCl2 2, MgCl2 2, NaH2PO4 1.23, NaHCO3 26, glucose 10, pH 7.4 with NaOH, and were transferred to a recording chamber constantly perfused with bath solution (330 C) at 2 ml/min after at least a 1 hr recovery. Whole-cell current clamp was performed to observe action potentials in DR serotoninergic (5-HT) neurons with a Multiclamp 700A amplifier (Axon instrument, CA). Patch pipettes with a tip resistance of 4-6 MΩ were made of borosilicate glass (World Precision Instruments) with a Sutter pipette puller (P-97) and filled with a pipette solution containing (in mM): K-gluconate (or Cs-gluconate) 135, MgCl2 2, HEPES 10, EGTA 1.1, Mg-ATP 2, Na2-phosphocreatine 10, and Na2-GTP 0.3, pH 7.3 with KOH. After a giga-Ohm (GΩ) seal and whole-cell access were achieved, the series resistance (between 20 and 40 MΩ) was partially compensated by the amplifier. […] All data were sampled at 3-10 kHz and filtered at 1-3 kHz with an Apple Macintosh computer using Axograph 4.9 (Axon Instruments). Electrophysiological data were analyzed with Axograph 4.9 and plotted with Igor Pro software (WaveMetrics, Lake Oswego, Oreg.).

[3] = tested on: cAMP production in hippocampal neurons; experiment: cAMP accumulation in primary hippocampal neurons; assay type: cell-based, mouse; conditions: cultured hippocampal neurons
Method: Hippocampal neurons were isolated from mouse embryos (embryonic day 16.5). After dissection, hippocampi were digested in Tryspin 0.05% and EDTA 0.02% for 15 minutes at 37° C. After 3 wash in DMEM (high glucose and sodium pyruvate) supplemented with 10% of fetal bovine serum, 100 U/mL Penicillin-Streptomycin and 1× GlutaMAX, cells were dissociated by pipetting up and down and then plated. After the culture was established, medium was changed 2 times per week with Neurobasal medium supplemented with B-27 supplement and 1× GlutaMAX. Experiments were performed on cells after 15 days of culture (DIV 15).
For Western blotting, frozen hippocampi from adult mice were lysed and homogenized in 250 µl tissue lysis buffer (25 mM Tris HCl 7.5; 100 mM NaF; 10 mM Na4P2O7; 10 mmM EDTA; 1% NP 40). Proteins were transferred to nitrocellulose membranes, and blocked with TBST-5% BSA for 1 hour. […] Western blot bands were quantified using ImageJ software. cAMP accumulation was measured in primary hippocampal neurons by using cAMP Parameter Assay Kit (R&D systems) and performed in primary hippocampal neurons (DIV15) following manufacturer instructions. For IP1 accumulation was determined in primary hippocampal neurons (DIV15) by using IP-One ELISA assay kit (Cisbio) following manufacturer instructions. […]

Q: With “osteocalcin: Recombinant osteocalcin bacterially produced, cleaved from the GST subunit; completely undercarboxylated at all three sites; full-length mouse osteocalcin (YLGASVPSPDPLEPTREQCELNPACDELSDQYGLKTAYKRIYGITI)” as the substance, how does the “osteocalcin accumulation in parts of the brain” value [1] read?
A: accumulated in Osteocalcin−/− mice in the brainstem, thalamus, and hypothalamus

Q: And the “osteocalcin concentration in brainstem, thalamus, and hypothalamus relative to that observed in serum” value [1]?
A: ~50%

Q: What about the “action potential frequency in neurons of the locus coeruleus” value [2] of the same substance?
A: decreases it

Q: What about the “action potential frequency of brainstem neurons” value [2] of the same substance?
A: activates the action potential frequency

Q: And the “action potential frequency of the GABAergic interneurons of the hindbrain” value [2]?
A: inhibits the action potential frequency

Q: And the cAMP production [3]?
A: did not affect cAMP production
